Measurements reported in patent publication US10196390B2, “TYK2 inhibitors and uses thereof” (Nimbus Lakshmi, Inc., priority 2014, dated 2019).
Where two headings read alike, the source gives them in different places.

What was measured:
Tyk2-pSTAT4 = test: IL-12 induced pSTAT4 in human PBMC; assay type: cell-based; conditions: read-out: Tyk2-pSTAT4 EC50
Experimental: (§1) Human PBMC are isolated from buffy coat and are stored frozen for assays as needed. Cells for assay are thawed and resuspended in complete media containing serum, then cells are diluted to 1.67 E6 cells/ml so that 120 μl per well is 200,000 cells. 15 μl of compound or DMSO is added to the well at the desired concentrations and incubated at 1 hr at 37 C. 15 μl of stimulus (final concentration of 1.7 ng/mL IL-12) is added for 30 minutes prior to pSTAT4 and total STAT4 analysis using cell lysates prepared and analyzed by MSD reagents as per manufacturer protocol. The final DMSO concentration of compound in the assay is 0.1%.

JAK2-pSTAT5 = test: GM-CSF induced pSTAT5 in human PBMC; assay type: cell-based; conditions: read-out: JAK2-pSTAT5 EC50
Experimental: as §1, with “Cells for assay are thawed and resuspended in complete media containing serum, then cells are diluted to 1.67 E6 cells/ml so that 120 μl per well is 200,000 cells.” left out
Cells are prepared for analysis as in the above procedure and 15 μl of GM-CSF (final concentration 5 ng/mL) is added for 20 minutes prior to pSTAT5 and total STAT5 analysis using cell lysates prepared and analyzed by MSD reagents as per manufacturer protocol. The final DMSO concentration of compound in the assay is 0.1%.

TYK2 = TYK2 (Homo sapiens (Human), UniProt P29597); test: Tyk2 activity inhibition assay (radioactive kinase assay / Caliper assay); assay type: biochemical
Procedure, shortened: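 Radiometric format: TYK2 with peptide substrate (20 μM) and 33P-ATP at 10 μM in HEPES pH 7.5, 1% DMSO, 120 min at room temp, P81 paper capture. Caliper mobility-shift format: TYK2 9.75 nM, peptide 30 at 3 uM, ATP 16 uM (also 1 mM), 25 min at 28° C.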

JAK2 = JAK2 (Homo sapiens (Human), UniProt O60674); test: JAK2 activity inhibition assay (radioactive kinase assay / Caliper assay); assay type: biochemical; conditions: read-out: JAK2 Ki
Procedure, shortened: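 Mobility-shift (Caliper) read-out of phosphorylated peptide substrate. Compound diluted in 25 mM HEPES pH 7.5, 0.01% Brij-35, 0.01% Triton, 0.5 mM EGTA; enzyme added, then peptide plus ATP in 10 mM MgCl2. Incubated 25 min at 28° C, stopped with EDTA buffer.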

[1] = IL-12 induced pSTAT4, human PBMC
[2] = GM-CSF induced pSTAT5, human PBMC

Sequence of TYK2 (P29597 whole entry): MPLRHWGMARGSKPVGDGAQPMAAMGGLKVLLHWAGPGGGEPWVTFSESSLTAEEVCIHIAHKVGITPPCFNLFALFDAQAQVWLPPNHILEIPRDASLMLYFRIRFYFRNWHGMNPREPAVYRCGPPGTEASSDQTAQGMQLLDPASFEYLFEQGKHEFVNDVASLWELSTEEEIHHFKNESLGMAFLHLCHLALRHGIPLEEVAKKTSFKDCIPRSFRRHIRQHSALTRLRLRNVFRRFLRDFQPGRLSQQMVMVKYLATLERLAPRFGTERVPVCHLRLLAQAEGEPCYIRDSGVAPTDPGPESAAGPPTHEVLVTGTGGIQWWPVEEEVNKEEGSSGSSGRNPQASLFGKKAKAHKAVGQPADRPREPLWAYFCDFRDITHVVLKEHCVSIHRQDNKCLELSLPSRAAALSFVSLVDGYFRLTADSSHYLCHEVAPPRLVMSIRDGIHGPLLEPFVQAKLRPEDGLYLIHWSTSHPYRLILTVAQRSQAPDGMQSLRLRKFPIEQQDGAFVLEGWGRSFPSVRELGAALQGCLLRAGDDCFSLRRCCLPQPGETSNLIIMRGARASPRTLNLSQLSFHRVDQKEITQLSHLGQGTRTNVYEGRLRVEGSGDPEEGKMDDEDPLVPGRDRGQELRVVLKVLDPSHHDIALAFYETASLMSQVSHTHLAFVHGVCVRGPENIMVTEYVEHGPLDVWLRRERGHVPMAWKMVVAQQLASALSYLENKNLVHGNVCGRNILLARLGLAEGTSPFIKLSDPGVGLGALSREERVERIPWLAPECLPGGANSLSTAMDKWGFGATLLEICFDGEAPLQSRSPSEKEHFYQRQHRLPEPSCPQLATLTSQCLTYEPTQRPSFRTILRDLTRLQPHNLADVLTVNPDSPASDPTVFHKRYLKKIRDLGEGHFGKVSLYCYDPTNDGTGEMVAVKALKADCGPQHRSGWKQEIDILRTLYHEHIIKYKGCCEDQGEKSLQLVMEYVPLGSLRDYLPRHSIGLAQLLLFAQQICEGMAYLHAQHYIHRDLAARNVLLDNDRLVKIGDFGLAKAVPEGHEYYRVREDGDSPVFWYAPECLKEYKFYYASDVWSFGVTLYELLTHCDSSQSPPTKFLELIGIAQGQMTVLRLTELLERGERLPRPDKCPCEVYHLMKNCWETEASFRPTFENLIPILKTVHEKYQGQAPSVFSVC
Sequence of JAK2 (O60674 whole entry): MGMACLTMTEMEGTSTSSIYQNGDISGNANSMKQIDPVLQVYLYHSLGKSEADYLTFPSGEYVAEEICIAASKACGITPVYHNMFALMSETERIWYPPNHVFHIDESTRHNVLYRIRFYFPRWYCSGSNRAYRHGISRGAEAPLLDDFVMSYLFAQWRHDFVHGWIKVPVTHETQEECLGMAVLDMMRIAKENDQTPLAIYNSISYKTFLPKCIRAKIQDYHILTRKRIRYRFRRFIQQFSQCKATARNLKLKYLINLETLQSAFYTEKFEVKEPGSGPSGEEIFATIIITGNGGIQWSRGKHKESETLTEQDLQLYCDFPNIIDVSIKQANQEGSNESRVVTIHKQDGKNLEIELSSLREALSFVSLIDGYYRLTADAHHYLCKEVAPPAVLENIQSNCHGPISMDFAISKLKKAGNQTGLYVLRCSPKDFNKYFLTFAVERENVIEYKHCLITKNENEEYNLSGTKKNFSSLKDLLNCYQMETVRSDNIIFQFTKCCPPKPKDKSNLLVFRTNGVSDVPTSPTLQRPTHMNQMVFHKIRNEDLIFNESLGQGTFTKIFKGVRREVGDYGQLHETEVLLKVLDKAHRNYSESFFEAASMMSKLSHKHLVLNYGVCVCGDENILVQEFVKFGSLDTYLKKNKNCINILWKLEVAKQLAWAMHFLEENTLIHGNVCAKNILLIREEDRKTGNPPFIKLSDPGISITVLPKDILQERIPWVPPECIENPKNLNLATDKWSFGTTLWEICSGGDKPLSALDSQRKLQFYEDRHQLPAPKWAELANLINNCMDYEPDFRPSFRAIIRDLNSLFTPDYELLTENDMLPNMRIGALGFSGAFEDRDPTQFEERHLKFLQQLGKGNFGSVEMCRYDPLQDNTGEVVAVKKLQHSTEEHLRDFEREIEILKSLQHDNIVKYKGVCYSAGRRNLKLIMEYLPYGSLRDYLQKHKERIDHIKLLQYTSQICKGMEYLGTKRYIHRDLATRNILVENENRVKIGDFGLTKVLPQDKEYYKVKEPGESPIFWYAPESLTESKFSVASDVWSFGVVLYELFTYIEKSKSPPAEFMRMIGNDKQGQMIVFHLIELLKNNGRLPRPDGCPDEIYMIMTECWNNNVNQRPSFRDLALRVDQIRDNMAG

| SMILES | Ki (TYK2) [nM] | Ki (JAK2) [nM] | other results |
| --- | --- | --- | --- |
| Cc1ccc(Nc2nc(-c3c(F)cccc3F)nc3c2C(=O)NC3)cc1 [Compound I-21, 2-(2,6-difluorophenyl)-4-(p-tolylamino)-6,7-dihydro-5H-pyrrolo[3,4-d]pyrimidin-5-one] | – | – | EC50 (Tyk2-pSTAT4; Homo sapiens, PBMC): < 2000 nM; EC50 (JAK2-pSTAT5; Homo sapiens, PBMC): > 20000 nM |
| CC[C@@]1(c2ccc(Nc3nc(-c4c(F)cccc4F)nc4c3C(=O)NC4)cc2)CCNC1=O [Compound I-176, (S)-2-(2,6-difluorophenyl)-4-((4-(3-ethyl-2-oxopyrrolidin-3-yl)phenyl)amino)-6,7-dihydro-5H-pyrrolo[3,4-d]pyrimidin-5-one] | – | 10 to 100 | EC50 (Tyk2-pSTAT4; [1]): < 2000 nM; EC50 (JAK2-pSTAT5; [2]): 2000 to 20000 nM |
| O=C1NCc2nc(-c3c(F)cccc3F)cc(Nc3ccc(N4CCCC4)cn3)c21 [Compound I-205, 2-(2,6-difluorophenyl)-4-((5-(pyrrolidin-1-yl)pyridin-2-yl)ami-no)-6,7-dihydro-5H-pyrrolo[3,4-b]pyridin-5-one] | – | – | EC50 (Tyk2-pSTAT4; [1]): < 2000 nM; EC50 (JAK2-pSTAT5; [2]): 2000 to 20000 nM |
| CC1(C)CC(c2ccc(Nc3nc(-c4c(F)cccc4F)nc4c3C(=O)NC4)cc2)C(=O)N1 (centres unmarked) [Compound I-213, 2-(2,6-difluorophenyl)-4-((4-(5,5-dimethyl-2-oxopyrrolidin-3-yl)phenyl)amino)-6,7-dihydro-5H-pyrrolo[3,4-d]pyrimidin-5-one] | < 10 | 100 to 1000 | – |
| CN1CCNC(C)(c2ccc(Nc3nc(-c4c(F)cccc4F)nc4c3C(=O)NC4)cc2)C1=O (centres unmarked) [Compound I-215, 2-(2,6-difluorophenyl)-4-((4-(2,4-dimethyl-3-oxopiperazin-2-yl)phenyl)amino)-6,7-dihydro-5H-pyrrolo[3,4-d]pyrimidin-5-one] | < 10 | 10 to 100 | – |
| CN1CCN[C@](C)(c2ccc(Nc3nc(-c4c(F)cccc4F)nc4c3C(=O)NC4)cc2)C1=O [Compound I-216, (R)-2-(2,6-difluorophenyl)-4-((4-(2,4-dimethyl-3-oxopiperazin-2-yl)phenyl)amino)-6,7-dihydro-5H-pyrrolo[3,4-d]pyrimidin-5-one] | < 10 | 100 to 1000 | – |
| CC1(C)C[C@@H](c2ccc(Nc3nc(-c4c(F)cccc4F)nc4c3C(=O)NC4)cc2)C(=O)N1 [Compound I-218, (S)-2-(2,6-difluorophenyl)-4-((4-(5,5-dimethyl-2-oxopyrrolidin-3-yl)phenyl)amino)-6,7-dihydro-5H-pyrrolo[3,4-d]pyrimidin-5-one] | < 10 | 100 to 1000 | – |
| CC1(C)C[C@H](c2ccc(Nc3nc(-c4c(F)cccc4F)nc4c3C(=O)NC4)cc2)C(=O)N1 [Compound I-219, (R)-2-(2,6-difluorophenyl)-4-((4-(5,5-dimethyl-2-oxopyrrolidin-3-yl)phenyl)amino)-6,7-dihydro-5H-pyrrolo[3,4-d]pyrimidin-5-one] | < 10 | 10 to 100 | – |
| CN1C(=O)C(C)(c2ccc(Nc3nc(-c4c(F)cccc4F)nc4c3C(=O)NC4)cc2)CC1(C)C (centres unmarked) [Compound I-220, 2-(2,6-difluorophenyl)-4-((4-(1,3,5,5-tetramethyl-2-oxo-pyrrolidin-3-yl)phenyl)amino)-6,7-dihydro-5H-pyrrolo[3,4-d]pyrimidin-5-one] | < 10 | 10 to 100 | – |
| CN1C(=O)[C@](C)(c2ccc(Nc3nc(-c4c(F)cccc4F)nc4c3C(=O)NC4)cc2)CC1(C)C [Compound I-221, (S)-2-(2,6-difluorophenyl)-4-((4-(1,3,5,5-tetramethyl-2-oxopyrrolidin-3-yl)phenyl)amino)-6,7-dihydro-5H-pyrrolo[3,4-d]pyrimidin-5-one] | < 10 | 10 to 100 | – |
| CN1C(=O)[C@@](C)(c2ccc(Nc3nc(-c4c(F)cccc4F)nc4c3C(=O)NC4)cc2)CC1(C)C [Compound I-222, (R)-2-(2,6-difluorophenyl)-4-((4-(1,3,5,5-tetramethyl-2-oxopyrrolidin-3-yl)phenyl)amino)-6,7-dihydro-5H-pyrrolo[3,4-d]pyrimidin-5-one] | < 10 | 10 to 100 | – |
| COc1ccc(Nc2cc(-c3c(F)cccc3F)nc3c2C(=O)NC3)cc1 [Compound I-230, 2-(2,6-difluorophenyl)-4-((4-methoxyphenyl)amino)-6,7-dihydro-5H-pyrrolo[3,4-b]pyridin-5-one] | < 10 | 100 to 1000 | – |
| CC(C)N1CCN(c2ccc(Nc3cc(-c4c(F)cccc4F)nc4c3C(=O)NC4)nc2)CC1 [Compound I-256, 2-(2,6-difluorophenyl)-4-((5-(4-isopropylpiperazin-1-yl)pyridin-2-yl)amino)-6,7-dihydro-5H-pyrrolo[3,4-b]pyridin-5-one] | – | – | EC50 (Tyk2-pSTAT4; [1]): < 2000 nM; EC50 (JAK2-pSTAT5; [2]): < 2000 nM |
| CC1(C)CCC(=O)N1c1ccc(Nc2cc(-c3c(F)cccc3F)nc3c2C(=O)NC3)nc1 [Compound I-272, 2-(2,6-difluorophenyl)-4-((5-(2,2-dimethyl-5-oxopyrrolidin-1-yl)pyridin-2-yl)amino)-6,7-dihydro-5H-pyrrolo[3,4-b]pyridin-5-one] | – | – | EC50 (Tyk2-pSTAT4; [1]): < 2000 nM; EC50 (JAK2-pSTAT5; [2]): < 2000 nM |

Further lines, with some results ahead:

| Ki (TYK2) [nM] | Ki (JAK2) [nM] | SMILES | other results |
| --- | --- | --- | --- |
| < 10 | < 10 | O=C1NCc2nc(-c3c(F)cccc3F)cc(Nc3ccc(N4CC5(COC5)C4)cn3)c21 [Compound I-144, 4-((5-(2-oxa-6-azaspiro[3.3]heptan-6-yl)pyridin-2-yl)amino)-2-(2,6-difluorophenyl)-6,7-dihydro-5H-pyrrolo[3,4-b]pyridin-5-one] | EC50 (Tyk2-pSTAT4; [1]): < 2000 nM |
| < 10 | 10 to 100 | CN1CCN[C@@](C)(c2ccc(Nc3nc(-c4c(F)cccc4F)nc4c3C(=O)NC4)cc2)C1=O [Compound I-217, (S)-2-(2,6-difluorophenyl)-4-((4-(2,4-dimethyl-3-oxopiperazin-2-yl)phenyl)amino)-6,7-dihydro-5H-pyrrolo[3,4-d]pyrimidin-5-one] | – |
| < 10 | < 10 | CN1CCNC(C)(c2ccc(Nc3cc(-c4c(F)cccc4F)nc4c3C(=O)NC4)nc2)C1=O (centres unmarked) [Compound I-223, 2-(2,6-difluorophenyl)-4-((5-(2,4-dimethyl-3-oxopiperazin-2-yl)pyridin-2-yl)amino)-6,7-dihydro-5H-pyrrolo[3,4-b]pyridin-5-one] | – |
| < 10 | < 10 | CN1CCN[C@](C)(c2ccc(Nc3cc(-c4c(F)cccc4F)nc4c3C(=O)NC4)nc2)C1=O [Compound I-224, (R)-2-(2,6-difluorophenyl)-4-((5-(2,4-dimethyl-3-oxopiperazin-2-yl)pyridin-2-yl)amino)-6,7-dihydro-5H-pyrrolo[3,4-b]pyridin-5-one] | – |
| < 10 | < 10 | CN1CCN[C@@](C)(c2ccc(Nc3cc(-c4c(F)cccc4F)nc4c3C(=O)NC4)nc2)C1=O [Compound I-225, (S)-2-(2,6-difluorophenyl)-4-((5-(2,4-dimethyl-3-oxopiperazin-2-yl)pyridin-2-yl)amino)-6,7-dihydro-5H-pyrrolo[3,4-b]pyridin-5-one] | – |
| < 10 | 10 to 100 | O=C(NCC1CC1)c1ccc(Nc2cc(-c3c(F)cccc3F)nc3c2C(=O)NC3)nc1 [Compound I-226, N-(cyclopropylmethyl)-6-((2-(2,6-difluorophenyl)-5-oxo-6,7-dihydro-5H-pyrrolo[3,4-b]pyridin-4-yl)amino)nicotinamide] | – |
| 10 to 100 | 100 to 1000 | NC(=O)c1cc(F)c(-c2cc(Nc3ccc(N4CCOCC4)cn3)c3c(n2)CNC3=O)c(F)c1 [Compound I-250, 3,5-difluoro-4-(4-((5-morpholinopyridin-2-yl)amino)-5-oxo-6,7-dihydro-5H-pyrrolo[3,4-b]pyridin-2-yl)benzamide] | – |
| < 10 | 10 to 100 | CC1(C)CN(c2ccc(Nc3cc(-c4c(F)cccc4F)nc4c3C(=O)NC4)nc2)CC[C@H]1O [Compound I-268, (R)-2-(2,6-difluorophenyl)-4-((5-(4-hydroxy-3,3-dimethyl-piperidin-1-yl)pyridin-2-yl)amino)-6,7-dihydro-5H-pyrrolo[3,4-b]pyridin-5-one] | – |
| 10 to 100 | 100 to 1000 | O=C1NCc2nc(-c3c(F)cccc3F)cc(Nc3ccc(C(=O)N4CCOCC4)nc3)c21 [Compound I-280, 2-(2,6-difluorophenyl)-4-((6-(morpholine-4-carbonyl)pyridin-3-yl)amino)-6,7-dihydro-5H-pyrrolo[3,4-b]pyridin-5-one] | – |
| < 10 | < 10 | N#Cc1cccc(F)c1-c1cc(Nc2ccc(N3CCOCC3)cn2)c2c(n1)CNC2=O [Compound I-281, 3-fluoro-2-(4-((5-morpholinopyridin-2-yl)amino)-5-oxo-6,7-dihydro-5H-pyrrolo[3,4-b]pyridin-2-yl)benzonitrile] | – |
